{"source": "patent US20260191864A1", "about": "“Uses of Hydroimidazopyridopyrimidinone Derivatives for Managing Aneurysms or Other Vascular Conditions or Diseases” (Emory University, priority 2022, published 2026)", "key": {"[1]": {"test_system": "vascular smooth muscle", "assay": "vascular smooth muscle differentiation in vivo (ACTA2 smooth muscle actin staining)", "conditions": "mice, ACTA2 staining (FIG. 1D)"}, "[2]": {"test_system": "aortic aneurysms", "conditions": "mice; aortic diameter at day 14 vs baseline (FIGS. 1A-1C)", "description": "It is contemplated that VSMC phenotypic modulation is responsible for foam cell formation during atherosclerosis.\nData represents percentage of maximal aortic dilation on day 14 of each animal. The recording and subsequent analysis were blinded to the assignment of the treatment regimen.\nImages were quantified using ImageJ plus/color deconvolution plugin."}}}
{"molecule": "Cc1ccccc1CN1C(=O)C2=C(CCN(Cc3ccccc3)C2)N2CCN=C12", "note": "[ONC201, 7-benzyl-4-(2-methylbenzyl)-2,4,6,7,8,9-hexahydroimidazo[1,2-a]pyrido[3,4-e]pyrimidin-5 (1H)-one]", "values": [{"measurement": "vascular smooth muscle differentiation", "setting": "[1]", "result": "induces vascular smooth muscle differentiation in vivo"}, {"measurement": "formation of aortic aneurysms", "setting": "[2]", "result": "inhibits the formation of aortic aneurysms in mice"}]}
